Assay results reported in ChEMBL document CHEMBL1909046, “DrugMatrix in vitro pharmacology data”.

Experiments:
[1] = target: T1, Alpha-2A adrenergic receptor (Homo sapiens, UniProt P08913); format: cell membranes, Sf9, Membrane; also: in other assays of this panel Not Active means under 50% inhibition at 10 µM
T1 sequence (P08913 whole entry): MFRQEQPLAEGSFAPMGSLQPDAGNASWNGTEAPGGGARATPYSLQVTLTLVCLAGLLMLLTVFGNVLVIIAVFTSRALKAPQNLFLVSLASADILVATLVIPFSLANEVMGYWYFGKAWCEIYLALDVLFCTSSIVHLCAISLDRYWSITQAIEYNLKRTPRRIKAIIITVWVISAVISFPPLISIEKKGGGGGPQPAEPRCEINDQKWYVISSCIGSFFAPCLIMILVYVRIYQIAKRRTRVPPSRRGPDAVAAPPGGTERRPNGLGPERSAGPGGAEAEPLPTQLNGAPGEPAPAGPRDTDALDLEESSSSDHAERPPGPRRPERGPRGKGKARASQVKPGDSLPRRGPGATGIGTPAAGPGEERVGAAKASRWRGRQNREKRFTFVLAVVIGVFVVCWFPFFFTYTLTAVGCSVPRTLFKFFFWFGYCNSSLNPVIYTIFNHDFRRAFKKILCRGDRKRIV

[2] = target: T2, Alpha-2C adrenergic receptor (Homo sapiens, UniProt P18825); test: DRUGMATRIX: Adrenergic Alpha-2C radioligand binding (ligand: [3H] MK-912); format: cell membranes, Sf9, Membrane; as to IC50: call rule not given here
T2 sequence (P18825 whole entry): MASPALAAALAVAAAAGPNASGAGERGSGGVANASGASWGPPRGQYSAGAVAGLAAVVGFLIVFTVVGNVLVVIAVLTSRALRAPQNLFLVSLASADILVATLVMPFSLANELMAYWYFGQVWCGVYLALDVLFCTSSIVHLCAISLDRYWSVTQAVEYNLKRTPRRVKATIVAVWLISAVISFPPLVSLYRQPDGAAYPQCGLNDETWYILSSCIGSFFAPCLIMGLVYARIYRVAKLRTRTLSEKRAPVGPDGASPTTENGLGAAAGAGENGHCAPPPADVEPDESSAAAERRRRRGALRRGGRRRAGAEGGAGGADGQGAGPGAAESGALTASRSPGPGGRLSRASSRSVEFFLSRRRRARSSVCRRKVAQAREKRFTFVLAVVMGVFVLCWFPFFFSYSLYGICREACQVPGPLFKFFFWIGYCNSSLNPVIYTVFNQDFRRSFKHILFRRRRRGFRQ

[3] = target: Aldo-keto reductase family 1 member B1 (Rattus norvegicus, UniProt P07943); test: biochemical; format: tissue-based, Lens of camera-type eye;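 also: inhibition of aldose reductase enzyme activity, measured with DL-glyceraldehyde as the substrate; in other assays of this panel Not Active means under 50% inhibition at 10 µM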
[4] = target: D(3) dopamine receptor (Homo sapiens, UniProt P35462); test: DRUGMATRIX: Dopamine D3 radioligand binding (ligand: [3H] Spiperone); format: cell membranes, CHO, Membrane
[5] = target: Melanocortin receptor 4 (Homo sapiens, UniProt P32245); format: cell membranes, Membrane; conditions: hek293; also: in other assays of this panel Not Active means under 50% inhibition at 10 µM
[6] = target: T3, Cathepsin G (Homo sapiens, UniProt P08311); format: tissue-based; conditions: neutrophil;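 also: inhibition of Cathepsin G enzyme activity, tested on an AMC-conjugated peptide substrate; in other assays of this panel Not Active means under 50% inhibition at 10 µM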
T3 sequence (P08311 whole entry): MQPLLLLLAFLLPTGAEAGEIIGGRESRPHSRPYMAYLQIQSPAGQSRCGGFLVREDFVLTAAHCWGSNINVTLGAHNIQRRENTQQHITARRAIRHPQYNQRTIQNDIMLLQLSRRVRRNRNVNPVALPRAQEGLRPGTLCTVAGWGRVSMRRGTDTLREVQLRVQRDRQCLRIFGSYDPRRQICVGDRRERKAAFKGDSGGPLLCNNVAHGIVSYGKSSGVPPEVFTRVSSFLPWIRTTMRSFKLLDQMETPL

[7] = target: Matrix metalloproteinase-9 (Homo sapiens, UniProt P14780); test: biochemical; format: cell-based
[8] = target: T4, Receptor-type tyrosine-protein phosphatase C (Homo sapiens, UniProt P08575); parameters: species or system Escherichia coli
T4 sequence (P08575 whole entry): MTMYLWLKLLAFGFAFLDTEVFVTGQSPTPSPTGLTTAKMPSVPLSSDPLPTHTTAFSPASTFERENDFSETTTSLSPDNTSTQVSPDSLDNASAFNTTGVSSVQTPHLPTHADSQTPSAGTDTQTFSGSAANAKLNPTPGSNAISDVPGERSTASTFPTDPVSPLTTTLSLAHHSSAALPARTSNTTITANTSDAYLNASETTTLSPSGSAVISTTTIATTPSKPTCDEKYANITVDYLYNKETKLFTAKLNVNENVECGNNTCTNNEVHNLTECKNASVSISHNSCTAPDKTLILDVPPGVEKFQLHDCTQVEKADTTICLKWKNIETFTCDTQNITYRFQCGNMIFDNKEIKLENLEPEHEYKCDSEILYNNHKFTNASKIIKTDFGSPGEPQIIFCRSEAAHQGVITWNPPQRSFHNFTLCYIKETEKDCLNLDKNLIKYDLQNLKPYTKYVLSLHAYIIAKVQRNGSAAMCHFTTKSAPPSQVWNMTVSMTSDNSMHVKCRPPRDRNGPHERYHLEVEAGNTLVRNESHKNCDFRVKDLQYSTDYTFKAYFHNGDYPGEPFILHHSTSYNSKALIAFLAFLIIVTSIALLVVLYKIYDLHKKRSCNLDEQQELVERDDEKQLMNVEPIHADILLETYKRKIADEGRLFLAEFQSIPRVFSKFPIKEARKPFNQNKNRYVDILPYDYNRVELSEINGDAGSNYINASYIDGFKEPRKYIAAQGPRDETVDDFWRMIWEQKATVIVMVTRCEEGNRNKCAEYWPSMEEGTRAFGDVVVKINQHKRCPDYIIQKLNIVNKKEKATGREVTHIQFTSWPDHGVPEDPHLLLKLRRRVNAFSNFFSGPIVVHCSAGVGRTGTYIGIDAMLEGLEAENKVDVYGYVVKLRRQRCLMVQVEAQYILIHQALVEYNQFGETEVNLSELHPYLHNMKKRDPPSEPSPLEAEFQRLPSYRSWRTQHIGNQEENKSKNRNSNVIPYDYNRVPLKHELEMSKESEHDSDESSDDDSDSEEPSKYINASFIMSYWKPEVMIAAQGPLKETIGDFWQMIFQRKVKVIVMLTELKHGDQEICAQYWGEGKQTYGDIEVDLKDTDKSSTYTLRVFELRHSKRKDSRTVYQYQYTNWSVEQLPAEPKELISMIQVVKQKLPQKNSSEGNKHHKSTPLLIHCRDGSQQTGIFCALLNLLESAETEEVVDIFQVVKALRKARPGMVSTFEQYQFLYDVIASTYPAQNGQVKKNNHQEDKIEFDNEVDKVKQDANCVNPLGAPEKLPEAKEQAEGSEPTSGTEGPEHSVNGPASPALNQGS

D(3) dopamine receptor, sequence (P35462 whole entry): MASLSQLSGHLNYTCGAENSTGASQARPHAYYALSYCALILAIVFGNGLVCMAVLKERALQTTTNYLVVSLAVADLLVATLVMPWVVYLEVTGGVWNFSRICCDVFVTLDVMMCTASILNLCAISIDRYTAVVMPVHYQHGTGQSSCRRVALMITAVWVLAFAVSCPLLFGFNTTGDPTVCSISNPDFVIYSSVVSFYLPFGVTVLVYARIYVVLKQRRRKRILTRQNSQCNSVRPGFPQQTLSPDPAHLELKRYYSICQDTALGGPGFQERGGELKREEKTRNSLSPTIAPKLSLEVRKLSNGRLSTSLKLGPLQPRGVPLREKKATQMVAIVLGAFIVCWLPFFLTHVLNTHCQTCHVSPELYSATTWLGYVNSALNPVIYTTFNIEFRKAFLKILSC
Matrix metalloproteinase-9, sequence (P14780 whole entry): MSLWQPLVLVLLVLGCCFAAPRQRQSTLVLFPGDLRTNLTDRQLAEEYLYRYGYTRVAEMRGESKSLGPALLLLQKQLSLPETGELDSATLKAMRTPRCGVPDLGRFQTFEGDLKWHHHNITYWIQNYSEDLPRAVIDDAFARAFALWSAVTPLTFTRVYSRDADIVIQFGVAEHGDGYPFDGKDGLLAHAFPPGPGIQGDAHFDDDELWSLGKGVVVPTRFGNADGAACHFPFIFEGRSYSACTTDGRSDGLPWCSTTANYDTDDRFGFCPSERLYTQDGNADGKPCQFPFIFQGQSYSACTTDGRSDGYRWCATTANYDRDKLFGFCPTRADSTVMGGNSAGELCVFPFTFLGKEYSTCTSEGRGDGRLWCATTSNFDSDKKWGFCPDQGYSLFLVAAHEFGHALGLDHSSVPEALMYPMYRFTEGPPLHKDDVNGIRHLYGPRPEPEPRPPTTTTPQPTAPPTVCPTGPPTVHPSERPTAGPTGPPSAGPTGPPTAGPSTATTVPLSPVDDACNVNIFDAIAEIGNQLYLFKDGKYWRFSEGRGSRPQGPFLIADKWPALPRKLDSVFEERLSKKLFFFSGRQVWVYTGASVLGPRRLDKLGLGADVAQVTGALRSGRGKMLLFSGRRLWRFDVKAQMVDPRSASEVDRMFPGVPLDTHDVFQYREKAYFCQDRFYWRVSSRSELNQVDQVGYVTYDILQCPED
Melanocortin receptor 4, sequence (P32245 whole entry): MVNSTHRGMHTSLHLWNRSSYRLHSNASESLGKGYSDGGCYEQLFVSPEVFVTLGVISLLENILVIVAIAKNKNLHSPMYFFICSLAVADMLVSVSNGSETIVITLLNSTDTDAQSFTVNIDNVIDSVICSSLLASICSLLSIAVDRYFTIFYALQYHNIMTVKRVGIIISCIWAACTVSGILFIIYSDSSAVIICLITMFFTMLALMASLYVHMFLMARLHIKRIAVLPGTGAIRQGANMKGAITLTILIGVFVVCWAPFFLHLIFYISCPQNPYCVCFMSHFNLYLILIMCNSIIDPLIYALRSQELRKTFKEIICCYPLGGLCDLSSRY

Compound | IC50 ([1]; sf9) | IC50 ([2]; sf9) | IC50 ([3]; read-out: IC50) | IC50 ([4]; cho) | IC50 [5] | IC50 [6] | IC50 [7] | IC50 [8] | IC50 [3] | IC50 ([2]; read-out: IC50) | Ki ([2]; read-out: Ki) | IC50 ([1]; read-out: IC50) | Ki ([1]; read-out: Ki) | IC50 ([4]; read-out: IC50) | Ki ([4]; read-out: Ki)
CC1=C(CC(=O)O)c2cc(F)ccc2/C1=C\c1ccc([S+](C)[O-])cc1 (centres undefined) | Not Active | Not Active | 0.435 µM | Not Active | Not Active | Not Active | Not Active | Not Active | – | – | – | – | – | – | –
N[C@H](CSC(=S)NCc1ccccc1)C(=O)O | Not Active | Not Active | – | Not Active | Not Active | Not Active | Not Active | Not Active | Not Active | – | – | – | – | – | –
CC(=O)N[C@@H]1[C@H](Oc2c3cc4cc2Oc2ccc(cc2Cl)[C@@H](O[C@@H]2O[C@@H](CO)[C@@H](O)[C@H](O)[C@@H]2NC(C)=O)[C@@H]2NC(=O)[C@H](NC(=O)[C@@H]4NC(=O)[C@H]4NC(=O)[C@@H](Cc5ccc(c(Cl)c5)O3)NC(=O)[C@H](N)c3ccc(O)c(c3)Oc3cc(O)cc4c3)c3ccc(O)c(c3)-c3c(O[C@H]4O[C@H](CO)[C@@H](O)[C@@H](O)[C@@H]4O)cc(O)cc3[C@@H](C(=O)O)NC2=O)O[C@@H](CO)[C@@H](O)[C@@H]1O | Not Active | Not Active | – | Not Active | Not Active | Not Active | Not Active | Not Active | Not Active | – | – | – | – | – | –
Clc1ccc2c(c1)C(N1CCNCC1)=Nc1ccccc1O2 [AMOXAPINE] | – | – | – | – | Not Active | Not Active | Not Active | Not Active | Not Active | – | – | – | – | – | –
COc1cc2c(c(OC)c1OC)-c1ccc(OC)c(=O)cc1[C@@H](NC(C)=O)CC2 [COLCHICINE] | Not Active | Not Active | – | Not Active | Not Active | Not Active | Not Active | Not Active | Not Active | – | – | – | – | – | –
CN1CCC(=C2c3ccccc3C=Cc3ccccc32)CC1 [CYPROHEPTADINE] | – | – | – | – | Not Active | Not Active | Not Active | Not Active | Not Active | 1.27 µM | 0.185 µM | – | – | – | –
CC/C(=C(/CC)c1ccc(O)cc1)c1ccc(O)cc1 [DIETHYLSTILBESTROL] | – | – | – | – | Not Active | Not Active | Not Active | Not Active | Not Active | – | – | – | – | – | –
CC(=O)N1CCN(c2ccc(OCC3COC(Cn4ccnc4)(c4ccc(Cl)cc4Cl)O3)cc2)CC1 (centres undefined) [KETOCONAZOLE] | – | Not Active | – | Not Active | Not Active | Not Active | Not Active | Not Active | Not Active | – | – | 19.8 µM | 7.42 µM | – | –
C=CCN1CC[C@]23c4c5ccc(O)c4O[C@H]2C(=O)CC[C@@]3(O)[C@H]1C5 [NALOXONE] | Not Active | Not Active | – | Not Active | Not Active | Not Active | Not Active | Not Active | Not Active | – | – | – | – | – | –
COCCOC(=O)C1=C(C)NC(C)=C(C(=O)OC(C)C)C1c1cccc([N+](=O)[O-])c1 (centres undefined) [NIMODIPINE] | Not Active | Not Active | – | Not Active | Not Active | Not Active | Not Active | Not Active | Not Active | – | – | – | – | – | –
CC(C)NCC(O)COc1cccc2ccccc12 (centres undefined) [PROPRANOLOL] | Not Active | Not Active | – | Not Active | Not Active | Not Active | Not Active | Not Active | Not Active | – | – | – | – | – | –
COCCCOc1ccnc(C[S+]([O-])c2nc3ccccc3[nH]2)c1C (centres undefined) [RABEPRAZOLE] | Not Active | Not Active | – | – | Not Active | Not Active | Not Active | Not Active | Not Active | – | – | – | – | 2.33 µM | 0.79 µM
O=C(c1ccc(OCCN2CCCCC2)cc1)c1c(-c2ccc(O)cc2)sc2cc(O)ccc12 [RALOXIFENE] | – | – | – | – | Not Active | Not Active | Not Active | Not Active | Not Active | – | – | – | – | – | –
CNC(=C[N+](=O)[O-])NCCSCc1ccc(CN(C)C)o1 [RANITIDINE] | Not Active | Not Active | – | Not Active | Not Active | Not Active | Not Active | Not Active | Not Active | – | – | – | – | – | –
CO[C@H]1/C=C/O[C@@]2(C)Oc3c(C)c(O)c4c(c3C2=O)C2=NC3(CCN(CC(C)C)CC3)NC2=C(NC(=O)/C(C)=C\C=C\[C@H](C)[C@H](O)[C@@H](C)[C@@H](O)[C@@H](C)[C@H](OC(C)=O)[C@@H]1C)C4=O [RIFABUTIN] | Not Active | Not Active | – | Not Active | Not Active | Not Active | Not Active | Not Active | Not Active | – | – | – | – | – | –
CC(C)c1nc(CN(C)C(=O)N[C@H](C(=O)N[C@@H](Cc2ccccc2)C[C@H](O)[C@H](Cc2ccccc2)NC(=O)OCc2cncs2)C(C)C)cs1 [RITONAVIR] | Not Active | Not Active | – | Not Active | Not Active | Not Active | Not Active | Not Active | Not Active | – | – | – | – | – | –
CC(C)CC(N(C)C)C1(c2ccc(Cl)cc2)CCC1 (centres undefined) [SIBUTRAMINE] | Not Active | Not Active | – | Not Active | Not Active | Not Active | Not Active | Not Active | Not Active | – | – | – | – | – | –
CC(C)(C)c1ccc(C(O)CCCN2CCC(C(O)(c3ccccc3)c3ccccc3)CC2)cc1 (centres undefined) [TERFENADINE] | Not Active | – | – | – | Not Active | Not Active | Not Active | Not Active | Not Active | – | – | – | – | – | –
